Assays:
[1] = biological target: T1, Pyruvate kinase PKLR (Homo sapiens, UniProt P30613); experiment: Inhibition of PKL (unknown origin) for 30 mins by Kinase-Glo Max reagent based luminescence assay
Target sequence in this assay (P30613 whole entry): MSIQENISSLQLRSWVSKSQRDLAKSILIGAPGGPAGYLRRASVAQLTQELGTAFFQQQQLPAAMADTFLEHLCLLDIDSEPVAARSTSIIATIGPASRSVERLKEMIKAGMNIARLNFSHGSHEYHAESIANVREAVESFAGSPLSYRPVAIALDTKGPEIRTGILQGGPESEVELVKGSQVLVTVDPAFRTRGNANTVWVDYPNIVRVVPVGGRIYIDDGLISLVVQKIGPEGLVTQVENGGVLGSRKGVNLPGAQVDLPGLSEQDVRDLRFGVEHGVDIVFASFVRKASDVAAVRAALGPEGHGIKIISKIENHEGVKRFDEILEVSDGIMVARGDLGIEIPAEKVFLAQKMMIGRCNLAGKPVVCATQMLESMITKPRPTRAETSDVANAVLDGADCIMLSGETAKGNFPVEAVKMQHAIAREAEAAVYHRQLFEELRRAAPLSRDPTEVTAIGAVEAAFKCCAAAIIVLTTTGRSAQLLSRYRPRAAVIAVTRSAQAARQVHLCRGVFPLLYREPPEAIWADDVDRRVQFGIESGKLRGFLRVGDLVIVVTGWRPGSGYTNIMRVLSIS

[2] = biological target: T1, Pyruvate kinase PKLR; experiment: Inhibition of PKL (unknown origin) at 10 uM for 30 mins by Kinase-Glo Max reagent based luminescence assay
Target sequence in this assay (P30613 whole entry, looked up): as the sequence (P30613 whole entry) above

[3] = biological target: T1, Pyruvate kinase PKLR; experiment: Inhibition of PKL in human PKM2 knockout HepG2 cells at 10 uM incubated for 5 mins by Microplate reader based analysis relative to control; type: cell-based
Target sequence in this assay (P30613 whole entry, looked up): as the sequence (P30613 whole entry) above

Structure (SMILES)	IC50 [1] [nM]	inhibition [2] [%]	inhibition [3] [%]
O=C(O)Cc1ccc(CNC(=O)Nc2cc3c(c(O)c2O)C(=O)c2ccccc2C3=O)cc1C(=O)O	1700	61	34
COC[C@H](NS(=O)(=O)c1cc2c(c(O)c1O)C(=O)c1ccccc1C2=O)C(=O)O	1200	101	–
O=C(O)CC(Nc1cc2c(cc1O)C(=O)c1ccccc1C2=O)C(=O)O (stereo not given)	–	57	59.7
O=C(O)CNC(=O)CNC(=O)CNS(=O)(=O)c1cc2c(c(O)c1O)C(=O)c1ccccc1C2=O	700	92	–
O=C1c2ccccc2C(=O)c2c1cc(S(=O)(=O)N[C@@H](CO)C(=O)O)c(O)c2O	900	97	–
O=C(O)CC[C@H](NC(=O)C1CCN(S(=O)(=O)c2cc3c(c(O)c2O)C(=O)c2ccccc2C3=O)CC1)C(=O)O	–	45	–
O=C(O)CNS(=O)(=O)c1cc2c(c(O)c1O)C(=O)c1ccccc1C2=O	200	100	–
O=C(O)Cc1ccc(CNc2cc3c(c(O)c2O)C(=O)c2ccccc2C3=O)cc1C(=O)O	1300	79	79.3
O=C(O)Cc1ccc(CNc2cc3c(cc2O)C(=O)c2ccccc2C3=O)cc1C(=O)O	–	94	50.2
O=C1c2ccccc2C(=O)c2c(O)cc(S(=O)(=O)O)cc21	7300	65	–
Nc1c(S(=O)(=O)O)cc2c(c1O)C(=O)c1ccccc1C2=O	–	77	–
O=C1c2ccccc2C(=O)c2c1cc(S(=O)(=O)N1CCCC(C(=O)N[C@@H](Cc3c[nH]cn3)C(=O)O)C1)c(O)c2O (stereo not given in full)	–	27	–
O=C(O)CC(O)(CC(=O)N1CCN(S(=O)(=O)c2cc(O)c3c(c2)C(=O)c2ccccc2C3=O)CC1)C(=O)O (stereo not given)	–	3	–
NS(=O)(=O)c1cccc(-c2cc3c(c(O)c2O)C(=O)c2ccccc2C3=O)c1	–	66	–
O=C1c2ccccc2C(=O)c2c1cc(-c1ccc(O)cc1)c(O)c2O	–	39	–
COc1c(S(=O)(=O)O)cc2c(c1OC)C(=O)c1ccccc1C2=O	–	19	–
CSCCC(NS(=O)(=O)c1cc2c(c(O)c1O)C(=O)c1ccccc1C2=O)C(=O)O (stereo not given)	1400	78	–
O=C1c2ccccc2C(=O)c2cc(S(=O)(=O)O)ccc21	–	45	–
O=C(O)c1cc2c(c(O)c1O)C(=O)c1ccccc1C2=O	1400	94	–
O=C1c2ccccc2C(=O)c2c1cc(S(=O)(=O)O)c(O)c2O [Alizarin Red S]	200	100	54
O=C(O)CC[C@H](NC(=O)N1CCN(S(=O)(=O)c2cc3c(c(O)c2O)C(=O)c2ccccc2C3=O)CC1)C(=O)O	550	99	–
O=C(O)CC(O)(CC(=O)N1CCN(S(=O)(=O)c2cc3c(c(O)c2O)C(=O)c2ccccc2C3=O)CC1)C(=O)O (stereo not given)	200	100	–
O=C(O)Cc1ccc(CNc2cc3c(cc2O)C(=O)c2ccccc2C3=O)cc1	–	76	41.1
O=C1c2ccccc2C(=O)c2c1cc(S(=O)(=O)N1CCNCC1)c(O)c2O	150	98	–

Structure (SMILES)	IC50 [1] [nM]	inhibition [2] [%]	inhibition [3] [%]
O=C(O)CCCCNS(=O)(=O)c1cc2c(c(O)c1O)C(=O)c1ccccc1C2=O	19000	97	–
O=C(O)Cc1ccc(CNC(=O)N2CCN(S(=O)(=O)c3cc4c(c(O)c3O)C(=O)c3ccccc3C4=O)CC2)cc1C(=O)O	290	99	–
O=C1c2ccccc2C(=O)c2c1cc(S(=O)(=O)N1CCC(C(=O)O)CC1)c(O)c2O	4800	87	–
O=C1c2ccccc2C(=O)c2c1cc(-c1ccc(O)c(O)c1)c(O)c2O	–	16	–
CS(=O)(=O)c1cccc(-c2cc3c(c(O)c2O)C(=O)c2ccccc2C3=O)c1	–	31	–
O=C1c2ccccc2C(=O)c2c1ccc(O)c2O	–	51	–
O=C(O)CC(Nc1cc2c(c(O)c1O)C(=O)c1ccccc1C2=O)C(=O)O (stereo not given)	2500	90	83.5
O=C(O)C[C@H](NC(=O)C1CCN(S(=O)(=O)c2cc3c(c(O)c2O)C(=O)c2ccccc2C3=O)CC1)C(=O)O	–	35	–
O=C(O)Cc1ccc(CNS(=O)(=O)c2cc3c(c(O)c2O)C(=O)c2ccccc2C3=O)cc1C(=O)O	300	99	–
O=C(O)CNc1cc2c(cc1O)C(=O)c1ccccc1C2=O	–	82	82.7
O=C1c2ccccc2C(=O)c2cc(S(=O)(=O)N3CCN(C(=O)CC(O)(C(=O)O)C(=O)O)CC3)c(O)cc21	–	63	22.6
O=C1c2ccccc2C(=O)c2cc(S(=O)(=O)N3CCCC(C(=O)O)C3)c(O)cc21 (stereo not given)	–	58	40.6
O=C(O)CNC(=O)CNS(=O)(=O)c1cc2c(c(O)c1O)C(=O)c1ccccc1C2=O	4100	102	–
O=C1c2ccccc2C(=O)c2c1cc(S(=O)(=O)N1CCCC(C(=O)O)C1)c(O)c2O (stereo not given)	160	92	–
O=C(O)CCNS(=O)(=O)c1cc2c(c(O)c1O)C(=O)c1ccccc1C2=O	5800	102	–
O=C(O)CC[C@H](NC(=O)C1CCCN(S(=O)(=O)c2cc3c(c(O)c2O)C(=O)c2ccccc2C3=O)C1)C(=O)O (stereo not given in full)	1300	94	–
O=C(O)CC(O)(CC(=O)N1CCN(C(=O)c2cc3c(c(O)c2O)C(=O)c2ccccc2C3=O)CC1)C(=O)O (stereo not given)	–	-1	–
O=C(O)CCCNS(=O)(=O)c1cc2c(c(O)c1O)C(=O)c1ccccc1C2=O	7500	101	–
O=C1c2ccccc2C(=O)c2cc(S(=O)(=O)O)c(O)cc21	3400	95	–
O=C1c2ccccc2C(=O)c2c1cc(C(=O)N1CCNCC1)c(O)c2O	–	22	–
O=C(O)Cc1ccc(CNc2cc3c(c(O)c2O)C(=O)c2ccccc2C3=O)cc1	3800	96	82.5
O=C(O)C[C@H](NC(=O)C1CCCN(S(=O)(=O)c2cc3c(c(O)c2O)C(=O)c2ccccc2C3=O)C1)C(=O)O (stereo not given in full)	1900	72	–
O=C(O)CNS(=O)(=O)c1cc2c(cc1O)C(=O)c1ccccc1C2=O	–	86	78.7
